Laboratory results reported in PubChem BioAssay (NCI).
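Compound exposure: 48 hours, 5 concentrations, 96-well plates. At the GI50, growth is halved. TGI denotes the concentration required for complete inhibition of growth.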

Columns and labels:
Assay in all cases: inhibition of tumour cell growth, NCI panel, 48 h
[1] = tested on: SN12C renal
[2] = tested on: SK-OV-3 ovarian
[3] = tested on: TK-10 renal
[4] = tested on: A498 renal
[5] = tested on: UACC-257 melanoma
[6] = tested on: OVCAR-8 ovarian
[7] = tested on: MDA-MB-435
[8] = tested on: UACC-62 melanoma
[9] = tested on: IGROV1 ovarian
[10] = tested on: CAKI-1 renal
[11] = tested on: LOX IMVI melanoma
[12] = tested on: U251 CNS
[13] = tested on: SR leukemia
[14] = tested on: MOLT-4 leukemia
[15] = tested on: MCF7 breast
[16] = tested on: BT-549 breast
[17] = tested on: RXF 393 renal
[18] = tested on: HCC-2998 colon
[19] = tested on: SNB-75 CNS
[20] = tested on: K-562 leukemia
[21] = tested on: HT29 colon
[22] = tested on: OVCAR-4 ovarian
[23] = tested on: MDA-MB-231 breast
[24] = tested on: CCRF-CEM leukemia
[25] = tested on: MALME-3M melanoma
[26] = tested on: PC-3 prostate
[27] = tested on: NCI-H23 lung
[28] = tested on: 786-0 renal
[29] = tested on: NCI/ADR-RES ovarian
[30] = tested on: COLO 205 colon
[31] = tested on: NCI-H522 lung
[32] = tested on: SF-539 CNS
[33] = tested on: OVCAR-3 ovarian
[34] = tested on: HCT-116 colon
[35] = tested on: DU-145 prostate
[36] = tested on: KM12 colon
[37] = tested on: M14 melanoma
[38] = tested on: UO-31 renal
[39] = tested on: SK-MEL-28 melanoma
[40] = tested on: RPMI-8226 leukemia
[41] = tested on: SNB-19 CNS
[42] = tested on: OVCAR-5 ovarian
[43] = tested on: NCI-H460 lung
[44] = tested on: NCI-H226 lung
[45] = tested on: SW-620 colon
[46] = tested on: HCT-15 colon
[47] = tested on: SK-MEL-2 melanoma
[48] = tested on: A549 NSCLC
[49] = tested on: SF-295 CNS
[50] = tested on: HS 578T breast
[51] = tested on: HOP-62 NSCLC
[52] = tested on: EKVX NSCLC
[53] = tested on: T-47D breast
[54] = tested on: SK-MEL-5 melanoma
[55] = tested on: ACHN renal
[56] = tested on: HL-60(TB) leukemia
[57] = tested on: SF-268 CNS

SMILES: O=C(/C=C/Sc1cc(C(F)(F)F)cc(C(F)(F)F)c1)c1ccc(Cl)cc1
- GI50 [1]: 1.71 µM
- TGI [1]: 3.46 µM
- GI50 [2]: 15.1 µM
- TGI [2]: 31.3 µM
- GI50 [3]: 22.3 µM
- TGI [3]: 37.8 µM
- GI50 [4]: 15.9 µM
- TGI [4]: 29.3 µM
- GI50 [5]: 14.1 µM
- TGI [5]: 27.5 µM
- GI50 [6]: 9.9 µM
- TGI [6]: 45.3 µM
- GI50 [7]: 4.22 µM
- TGI [7]: 15.3 µM
- GI50 [8]: 4.58 µM
- TGI [8]: 15.6 µM
- GI50 [9]: 2.38 µM
- TGI [9]: 6.55 µM
- GI50 [10]: 3.57 µM
- TGI [10]: 9.43 µM
- GI50 [11]: 1.43 µM
- TGI [11]: 2.73 µM
- GI50 [12]: 4.65 µM
- TGI [12]: 16.2 µM
- GI50 [13]: 2.02 µM
- TGI [13]: 5.32 µM
- GI50 [14]: 1.64 µM
- TGI [14]: 9.12 µM
- GI50 [15]: 13.6 µM
- TGI [15]: 35.8 µM
- GI50 [16]: 11.5 µM
- TGI [16]: 23.8 µM
- GI50 [17]: 12 µM
- TGI [17]: 25.3 µM
- GI50 [18]: 19.2 µM
- TGI [18]: 33.4 µM
- GI50 [19]: 12.8 µM
- TGI [19]: 25.7 µM
- GI50 [20]: 2.92 µM
- TGI [20]: 24.6 µM
- GI50 [21]: 6.93 µM
- TGI [21]: 23.9 µM
- GI50 [22]: 13.5 µM
- TGI [22]: 30.7 µM
- GI50 [23]: 2.51 µM
- TGI [23]: 8.67 µM
- GI50 [24]: 0.271 µM
- TGI [24]: 1.74 µM
- GI50 [25]: 9.13 µM
- TGI [25]: 23.4 µM
- GI50 [26]: 2.42 µM
- TGI [26]: 5.97 µM
- GI50 [27]: 17 µM
- TGI [27]: 31.3 µM
- GI50 [28]: 2.66 µM
- TGI [28]: 9.84 µM
- GI50 [29]: 23.4 µM
- TGI [29]: 46.3 µM
- GI50 [30]: 2.1 µM
- TGI [30]: 6.6 µM
- GI50 [31]: 3.42 µM
- TGI [31]: 12.4 µM
- GI50 [32]: 14.4 µM
- TGI [32]: 30.9 µM
- GI50 [33]: 1.48 µM
- TGI [33]: 4.19 µM
- GI50 [34]: 1.83 µM
- TGI [34]: 4.09 µM
- GI50 [35]: 12.3 µM
- TGI [35]: 25.1 µM
- GI50 [36]: 13.5 µM
- TGI [36]: 27.8 µM
- GI50 [37]: 1.67 µM
- TGI [37]: 3.36 µM
- GI50 [38]: 2.85 µM
- TGI [38]: 6.05 µM
- GI50 [39]: 4.74 µM
- TGI [39]: 17.1 µM
- GI50 [40]: 0.197 µM
- TGI [40]: 1.02 µM
- GI50 [41]: 12.8 µM
- TGI [41]: 25.4 µM
- GI50 [42]: 18.6 µM
- TGI [42]: 33.7 µM
- GI50 [43]: 16.6 µM
- TGI [43]: 36.6 µM
- GI50 [44]: 2.49 µM
- TGI [44]: 7.32 µM
- GI50 [45]: 17 µM
- TGI [45]: 41.3 µM
- GI50 [46]: 3.04 µM
- TGI [46]: 11.6 µM
- GI50 [47]: 31.1 µM
- TGI [47]: 63.1 µM
- GI50 [48]: 16.1 µM
- TGI [48]: 32.8 µM
- GI50 [49]: 13.6 µM
- TGI [49]: 29.6 µM
- GI50 [50]: 16.5 µM
- TGI [50]: 43.7 µM
- GI50 [51]: 18.3 µM
- TGI [51]: 32.7 µM
- GI50 [52]: 14.3 µM
- TGI [52]: 30.5 µM
- GI50 [53]: 1.82 µM
- TGI [53]: 4.09 µM
- GI50 [54]: 17.4 µM
- TGI [54]: 32.9 µM
- GI50 [55]: 1.78 µM
- TGI [55]: 3.36 µM
- GI50 [56]: 2 µM
- TGI [56]: 11.4 µM
- GI50 [57]: 14.4 µM
- TGI [57]: 29.6 µM

SMILES: NC(=O)NNc1nc(-c2ccccc2)cs1
- TGI [1]: > 100 µM
- TGI [2]: > 100 µM
- TGI [3]: > 100 µM
- TGI [4]: > 100 µM
- TGI [5]: > 100 µM
- TGI [6]: > 100 µM
- TGI [7]: > 100 µM
- TGI [8]: > 100 µM
- TGI [9]: > 100 µM
- TGI [10]: > 100 µM
- TGI [11]: > 100 µM
- TGI [12]: > 100 µM
- TGI [13]: > 100 µM
- TGI [14]: > 100 µM
- TGI [15]: > 100 µM
- TGI [16]: > 100 µM
- TGI [17]: > 100 µM
- TGI [18]: > 100 µM
- TGI [19]: > 100 µM
- TGI [20]: > 100 µM
- TGI [21]: > 100 µM
- TGI [22]: > 100 µM
- TGI [23]: > 100 µM
- TGI [24]: > 100 µM
- TGI [25]: > 100 µM
- TGI [26]: > 100 µM
- TGI [28]: > 100 µM
- TGI [29]: > 100 µM
- TGI [30]: > 100 µM
- TGI [31]: > 100 µM
- TGI [33]: > 100 µM
- TGI [34]: > 100 µM
- TGI [35]: > 100 µM
- TGI [36]: > 100 µM
- TGI [37]: > 100 µM
- TGI [38]: > 100 µM
- TGI [39]: > 100 µM
- TGI [40]: > 100 µM
- TGI [41]: > 100 µM
- TGI [42]: > 100 µM
- TGI [43]: > 100 µM
- TGI [44]: > 100 µM
- TGI [45]: > 100 µM
- TGI [46]: > 100 µM
- TGI [47]: > 100 µM
- TGI [48]: > 100 µM
- TGI [49]: > 100 µM
- TGI [50]: > 100 µM
- TGI [51]: > 100 µM
- TGI [52]: > 100 µM
- TGI [53]: > 100 µM
- TGI [54]: > 100 µM
- TGI [55]: > 100 µM
- TGI [57]: > 100 µM
